In brackets after ≈: the same amount, converted by molar mass.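 Exposure lasted 48 hours, with cells grown in 96-well plates and compounds tested at five concentrations. GI50 marks 50% less growth. TGI denotes the concentration required for complete inhibition of growth.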 Non-standard residues stand in square brackets, D forms with d. Residues, ends and D or L forms follow the SMILES beside them. *: point of attachment. ONb = O=[N+]([O-])c1ccc(CO*)cc1; AllylGly = C=CC[CH](N)C(=O)O; Boc = CC(C)(C)OC(=O)*
How the values were obtained:
Experiment in all cases: DTP human tumour cell line panel, 48 h
[1] = tested on: HOP-92 NSCLC
[2] = tested on: MDA-MB-231 breast
[3] = tested on: NCI-H226 lung
[4] = tested on: NCI-H460 lung
[5] = tested on: OVCAR-5 ovarian
[6] = tested on: SF-295 CNS
[7] = tested on: SK-MEL-28 melanoma
[8] = tested on: SK-OV-3 ovarian
[9] = tested on: KM12 colon
[10] = tested on: M14 melanoma

| Structure (SMILES) | GI50 [1] | TGI [1] | GI50 [2] | TGI [2] | GI50 [3] | TGI [3] | GI50 [4] | TGI [4] | GI50 [5] | TGI [5] | GI50 [6] | TGI [6] | GI50 [7] | TGI [7] | GI50 [8] | TGI [8] | TGI [9] | TGI [10] | GI50 [10] |
| --- | --- | --- | --- | --- | --- | --- | --- | --- | --- | --- | --- | --- | --- | --- | --- | --- | --- | --- | --- |
| COc1ccc(Cl)cc1Nc1nc(C(F)(F)F)ccc1C(=O)N/N=C/c1c(Cl)cccc1Cl | 3.46 µM | 38.4 µM | 14.5 µM | > 100 µM | 5.54 µM | > 100 µM | 4.52 µM | > 100 µM | > 100 µM | > 100 µM | 3.34 µM | 72.6 µM | > 100 µM | > 100 µM | 7.67 µM | > 100 µM |  |  |  |
| Cc1cc2c(c(C#N)c1C)NC(=O)CCC2=O |  |  |  |  |  |  |  | > 100 µM |  |  |  | > 100 µM |  | > 100 µM |  |  | > 100 µM | > 100 µM |  |
| C=CCC(NC(=O)OC(C)(C)C)C(=O)NC(CCC(=O)OCc1ccc([N+](=O)[O-])cc1)C(N)=O (stereo unspecified) (Boc-[AllylGly]-Glu(ONb)-NH2; configuration not given here) | 13.3 µg/mL | 26.5 µg/mL | 93 µg/mL |  |  |  | 24.7 µg/mL | 49.8 µg/mL | 64.1 µg/mL |  | 16.9 µg/mL | 37.9 µg/mL | 16.3 µg/mL | 30.9 µg/mL | 24.6 µg/mL | 66.3 µg/mL |  |  | 33 µg/mL (≈ 69.1 µM) |
| CC1=C(C)C(=O)c2c(cc3ccc4ccccc4n23)C1=O |  |  |  |  |  | > 100 µM |  | > 100 µM |  | > 100 µM |  | > 100 µM |  | > 100 µM |  | > 100 µM | > 100 µM | > 100 µM |  |
| O=C(O)c1c(-c2cccc3ccccc23)sc(-c2cccc3ccccc23)c1C(=O)O |  | > 100 µM |  |  |  | > 100 µM |  | > 100 µM |  | > 100 µM |  | > 100 µM |  | > 100 µM |  | > 100 µM | > 100 µM | > 100 µM |  |
| CC1OC(OCC2OC(Oc3c(-c4ccc(O)cc4)oc4cc(O)cc(O)c4c3=O)C(OC3OCC(O)(CO)C3O)C(O)C2O)C(O)C(O)C1O (stereo unspecified) |  | > 100 µM |  |  |  | > 100 µM |  | > 100 µM |  | > 100 µM |  | > 100 µM |  | > 100 µM |  | > 100 µM | > 100 µM | > 100 µM |  |
| Cc1ccc(OCC(=O)N2N=C(c3ccccc3)CC2(O)c2ccccc2)cc1 (stereo unspecified) |  | > 100 µM |  |  |  | 52.5 µM |  | 28.2 µM |  | 32.7 µM |  | > 100 µM |  | > 100 µM |  | > 100 µM | > 100 µM | 90 µM |  |
| COc1cc(CCc2ccc(OCCN(C)C)cc2)cc(OC)c1OC |  | > 100 µM |  |  |  | > 100 µM |  | > 100 µM |  | 88.4 µM |  | > 100 µM |  | > 100 µM |  |  | > 100 µM | > 100 µM |  |
| CC[C@H](C)N(CCN)C(=O)c1cc2ccccc2c(-c2ccccc2Cl)n1 |  |  |  |  |  | 29.7 µM |  | 27.1 µM |  | 27.9 µM |  | 28.4 µM |  | 27 µM |  |  | 29.6 µM | 44.8 µM |  |
| N#CCC1COc2ccccc2O1 (stereo unspecified) |  | > 10 µM |  | > 10 µM |  |  |  |  |  | > 10 µM |  | > 10 µM |  | > 10 µM |  | > 10 µM | > 10 µM | > 10 µM |  |
| O=C(O)CSc1n[nH]c(-c2ccc(O)cc2)n1 |  | > 100 µM |  |  |  | > 100 µM |  | > 100 µM |  | > 100 µM |  | > 100 µM |  | > 100 µM |  | > 100 µM | > 100 µM | > 100 µM |  |
